From the kinase profiling compilation of Christmann-Franck et al. (2016)

biological target: ACVR1 (human) (UniProt Q04771); experiment: radiometric filter-binding kinase assay, Kinase HotSpot; settings: compound 0.5 µM; ATP 10 µM

Compound	residual activity [%]
O=C(O)c1ccc2c3c1cccc3c(=O)n1c3ccccc3nc21	91.1
N#Cc1c(NC(=O)c2cccc3ccccc23)sc2c1CCCC2	72.9
FC(F)(F)c1ccc(/C=C/c2nc(COc3ccc(CCCCn4ccnn4)cc3)co2)cc1	101
COc1cc2ncnc(Nc3ccc(O)c(Br)c3)c2cc1OC	128

biological target: PLK1 (human) (UniProt P53350); experiment: as above; settings: compound 0.5 µM; ATP 10 µM
Sequence (P53350 whole entry, looked up): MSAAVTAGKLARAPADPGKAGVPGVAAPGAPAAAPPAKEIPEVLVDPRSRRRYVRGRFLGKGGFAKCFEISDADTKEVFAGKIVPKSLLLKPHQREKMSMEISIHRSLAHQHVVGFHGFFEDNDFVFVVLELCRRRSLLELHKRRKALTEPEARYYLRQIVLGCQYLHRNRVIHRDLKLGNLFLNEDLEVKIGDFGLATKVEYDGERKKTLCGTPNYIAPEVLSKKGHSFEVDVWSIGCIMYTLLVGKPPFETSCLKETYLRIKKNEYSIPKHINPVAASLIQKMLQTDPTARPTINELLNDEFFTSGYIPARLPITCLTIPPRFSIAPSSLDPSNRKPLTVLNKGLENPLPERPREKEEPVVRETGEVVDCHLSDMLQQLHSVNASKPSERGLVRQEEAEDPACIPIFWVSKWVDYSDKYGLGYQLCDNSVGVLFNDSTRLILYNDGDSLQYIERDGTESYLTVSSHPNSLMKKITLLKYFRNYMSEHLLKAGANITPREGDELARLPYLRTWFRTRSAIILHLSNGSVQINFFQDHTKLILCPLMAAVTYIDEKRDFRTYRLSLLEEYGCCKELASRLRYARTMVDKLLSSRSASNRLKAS

Compound	residual activity [%]
O=C(O)c1ccc2c3c1cccc3c(=O)n1c3ccccc3nc21	110
N#Cc1c(NC(=O)c2cccc3ccccc23)sc2c1CCCC2	96.4
FC(F)(F)c1ccc(/C=C/c2nc(COc3ccc(CCCCn4ccnn4)cc3)co2)cc1	98.3
COc1cc2ncnc(Nc3ccc(O)c(Br)c3)c2cc1OC	98.8

biological target: EPHA1 (human) (UniProt P21709); experiment: as above; settings: compound 0.5 µM; ATP 10 µM

Compound	residual activity [%]
O=C(O)c1ccc2c3c1cccc3c(=O)n1c3ccccc3nc21	95.3
N#Cc1c(NC(=O)c2cccc3ccccc23)sc2c1CCCC2	103
FC(F)(F)c1ccc(/C=C/c2nc(COc3ccc(CCCCn4ccnn4)cc3)co2)cc1	97.2
COc1cc2ncnc(Nc3ccc(O)c(Br)c3)c2cc1OC	80.4

biological target: MST1R (human) (UniProt Q04912); experiment: as above; settings: compound 0.5 µM; ATP 10 µM

Compound	residual activity [%]
O=C(O)c1ccc2c3c1cccc3c(=O)n1c3ccccc3nc21	100
N#Cc1c(NC(=O)c2cccc3ccccc23)sc2c1CCCC2	92.5
FC(F)(F)c1ccc(/C=C/c2nc(COc3ccc(CCCCn4ccnn4)cc3)co2)cc1	104
COc1cc2ncnc(Nc3ccc(O)c(Br)c3)c2cc1OC	101

biological target: FGFR4 (human) (UniProt P22455); experiment: as above; settings: compound 0.5 µM; ATP 10 µM

Compound	residual activity [%]
O=C(O)c1ccc2c3c1cccc3c(=O)n1c3ccccc3nc21	88.6
N#Cc1c(NC(=O)c2cccc3ccccc23)sc2c1CCCC2	109
FC(F)(F)c1ccc(/C=C/c2nc(COc3ccc(CCCCn4ccnn4)cc3)co2)cc1	88.3
COc1cc2ncnc(Nc3ccc(O)c(Br)c3)c2cc1OC	103

biological target: MAP3K8 (human) (UniProt P41279); experiment: as above; settings: compound 0.5 µM; ATP 10 µM
Sequence (P41279 whole entry, looked up): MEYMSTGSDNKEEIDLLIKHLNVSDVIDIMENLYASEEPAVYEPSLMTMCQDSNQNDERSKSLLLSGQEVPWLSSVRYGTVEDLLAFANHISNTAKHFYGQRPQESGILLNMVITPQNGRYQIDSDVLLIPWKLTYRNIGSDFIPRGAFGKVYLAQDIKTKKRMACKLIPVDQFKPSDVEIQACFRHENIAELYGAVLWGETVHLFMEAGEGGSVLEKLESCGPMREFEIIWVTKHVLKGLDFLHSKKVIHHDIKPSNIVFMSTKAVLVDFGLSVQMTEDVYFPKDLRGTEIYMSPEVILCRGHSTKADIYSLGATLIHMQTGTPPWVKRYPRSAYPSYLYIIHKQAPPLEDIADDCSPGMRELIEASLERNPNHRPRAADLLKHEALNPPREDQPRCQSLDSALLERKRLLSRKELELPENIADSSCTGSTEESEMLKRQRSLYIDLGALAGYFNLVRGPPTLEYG

Compound	residual activity [%]
O=C(O)c1ccc2c3c1cccc3c(=O)n1c3ccccc3nc21	88.3
N#Cc1c(NC(=O)c2cccc3ccccc23)sc2c1CCCC2	99.8
FC(F)(F)c1ccc(/C=C/c2nc(COc3ccc(CCCCn4ccnn4)cc3)co2)cc1	90.8
COc1cc2ncnc(Nc3ccc(O)c(Br)c3)c2cc1OC	97.6

biological target: PASK (human) (UniProt Q96RG2); experiment: as above; settings: compound 0.5 µM; ATP 10 µM

Compound	residual activity [%]
O=C(O)c1ccc2c3c1cccc3c(=O)n1c3ccccc3nc21	106
N#Cc1c(NC(=O)c2cccc3ccccc23)sc2c1CCCC2	98.3
FC(F)(F)c1ccc(/C=C/c2nc(COc3ccc(CCCCn4ccnn4)cc3)co2)cc1	104
COc1cc2ncnc(Nc3ccc(O)c(Br)c3)c2cc1OC	57.9

biological target: PRKCB1 (human) (UniProt P05771); experiment: as above; settings: compound 0.5 µM; ATP 10 µM
Sequence (P05771 whole entry, looked up): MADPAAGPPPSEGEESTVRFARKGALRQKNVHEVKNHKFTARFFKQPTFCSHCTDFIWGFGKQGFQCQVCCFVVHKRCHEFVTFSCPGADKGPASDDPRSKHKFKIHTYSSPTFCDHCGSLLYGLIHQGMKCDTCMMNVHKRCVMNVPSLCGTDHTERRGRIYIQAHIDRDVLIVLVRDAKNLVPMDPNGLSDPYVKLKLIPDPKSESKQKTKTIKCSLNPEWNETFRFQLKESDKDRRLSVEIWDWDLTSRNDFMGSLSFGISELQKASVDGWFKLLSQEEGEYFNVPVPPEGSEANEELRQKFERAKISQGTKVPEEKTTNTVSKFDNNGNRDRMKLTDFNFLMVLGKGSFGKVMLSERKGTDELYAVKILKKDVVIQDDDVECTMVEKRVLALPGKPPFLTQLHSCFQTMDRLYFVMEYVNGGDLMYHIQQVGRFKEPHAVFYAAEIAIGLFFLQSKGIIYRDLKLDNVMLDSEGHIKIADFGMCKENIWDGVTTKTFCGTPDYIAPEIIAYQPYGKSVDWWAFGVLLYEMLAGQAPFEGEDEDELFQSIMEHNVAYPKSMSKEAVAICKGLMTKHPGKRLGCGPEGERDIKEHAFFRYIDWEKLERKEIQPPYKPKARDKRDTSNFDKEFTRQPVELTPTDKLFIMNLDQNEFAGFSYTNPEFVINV

Compound	residual activity [%]
O=C(O)c1ccc2c3c1cccc3c(=O)n1c3ccccc3nc21	89.8
N#Cc1c(NC(=O)c2cccc3ccccc23)sc2c1CCCC2	90.9
FC(F)(F)c1ccc(/C=C/c2nc(COc3ccc(CCCCn4ccnn4)cc3)co2)cc1	103
COc1cc2ncnc(Nc3ccc(O)c(Br)c3)c2cc1OC	96.6

biological target: CAMKK2 (human) (UniProt Q96RR4); experiment: as above; settings: compound 0.5 µM; ATP 10 µM
Sequence (Q96RR4 whole entry, looked up): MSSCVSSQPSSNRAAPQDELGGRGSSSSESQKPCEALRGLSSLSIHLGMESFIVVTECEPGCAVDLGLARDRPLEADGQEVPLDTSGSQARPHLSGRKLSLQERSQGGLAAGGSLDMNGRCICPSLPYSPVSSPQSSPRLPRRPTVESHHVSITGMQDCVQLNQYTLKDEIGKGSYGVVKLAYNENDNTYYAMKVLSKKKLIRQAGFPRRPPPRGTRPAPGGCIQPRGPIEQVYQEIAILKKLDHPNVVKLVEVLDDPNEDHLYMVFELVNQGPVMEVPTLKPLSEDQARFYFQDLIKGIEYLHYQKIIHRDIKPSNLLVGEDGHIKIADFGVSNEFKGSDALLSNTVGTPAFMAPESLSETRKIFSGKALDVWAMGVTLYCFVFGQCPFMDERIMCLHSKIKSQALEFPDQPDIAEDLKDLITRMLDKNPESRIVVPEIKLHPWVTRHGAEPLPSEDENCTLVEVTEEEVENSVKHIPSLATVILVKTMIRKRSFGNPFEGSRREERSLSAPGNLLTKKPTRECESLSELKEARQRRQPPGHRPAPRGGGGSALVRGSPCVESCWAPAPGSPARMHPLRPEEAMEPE

Compound	residual activity [%]
O=C(O)c1ccc2c3c1cccc3c(=O)n1c3ccccc3nc21	7.88
N#Cc1c(NC(=O)c2cccc3ccccc23)sc2c1CCCC2	80.4
FC(F)(F)c1ccc(/C=C/c2nc(COc3ccc(CCCCn4ccnn4)cc3)co2)cc1	101
COc1cc2ncnc(Nc3ccc(O)c(Br)c3)c2cc1OC	92.4

biological target: PAK1 (human) (UniProt Q13153); experiment: as above; settings: compound 0.5 µM; ATP 10 µM

Compound	residual activity [%]
O=C(O)c1ccc2c3c1cccc3c(=O)n1c3ccccc3nc21	95.6
N#Cc1c(NC(=O)c2cccc3ccccc23)sc2c1CCCC2	97.4
FC(F)(F)c1ccc(/C=C/c2nc(COc3ccc(CCCCn4ccnn4)cc3)co2)cc1	104
COc1cc2ncnc(Nc3ccc(O)c(Br)c3)c2cc1OC	94.1

biological target: MKNK2 (human) (UniProt Q9HBH9); experiment: as above; settings: compound 0.5 µM; ATP 10 µM

Compound	residual activity [%]
O=C(O)c1ccc2c3c1cccc3c(=O)n1c3ccccc3nc21	57.2
N#Cc1c(NC(=O)c2cccc3ccccc23)sc2c1CCCC2	106
FC(F)(F)c1ccc(/C=C/c2nc(COc3ccc(CCCCn4ccnn4)cc3)co2)cc1	101
COc1cc2ncnc(Nc3ccc(O)c(Br)c3)c2cc1OC	18

biological target: STK17A (human) (UniProt Q9UEE5); experiment: as above; settings: compound 0.5 µM; ATP 10 µM
Sequence (Q9UEE5 whole entry, looked up): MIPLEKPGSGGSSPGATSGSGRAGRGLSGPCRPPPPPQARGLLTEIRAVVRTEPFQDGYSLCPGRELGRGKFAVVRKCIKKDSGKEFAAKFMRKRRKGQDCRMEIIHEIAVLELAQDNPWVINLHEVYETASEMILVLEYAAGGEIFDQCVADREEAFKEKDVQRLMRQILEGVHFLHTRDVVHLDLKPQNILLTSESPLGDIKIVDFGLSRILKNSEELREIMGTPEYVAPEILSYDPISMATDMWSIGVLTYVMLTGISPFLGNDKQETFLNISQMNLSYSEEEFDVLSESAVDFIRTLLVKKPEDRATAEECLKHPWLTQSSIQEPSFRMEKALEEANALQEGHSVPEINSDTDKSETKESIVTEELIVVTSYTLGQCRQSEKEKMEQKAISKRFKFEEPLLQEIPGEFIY

Compound	residual activity [%]
O=C(O)c1ccc2c3c1cccc3c(=O)n1c3ccccc3nc21	73.4
N#Cc1c(NC(=O)c2cccc3ccccc23)sc2c1CCCC2	104
FC(F)(F)c1ccc(/C=C/c2nc(COc3ccc(CCCCn4ccnn4)cc3)co2)cc1	103
COc1cc2ncnc(Nc3ccc(O)c(Br)c3)c2cc1OC	72.3

biological target: FER (human) (UniProt P16591); experiment: as above; settings: compound 0.5 µM; ATP 10 µM

Compound	residual activity [%]
O=C(O)c1ccc2c3c1cccc3c(=O)n1c3ccccc3nc21	96.5
N#Cc1c(NC(=O)c2cccc3ccccc23)sc2c1CCCC2	99.7
FC(F)(F)c1ccc(/C=C/c2nc(COc3ccc(CCCCn4ccnn4)cc3)co2)cc1	102
COc1cc2ncnc(Nc3ccc(O)c(Br)c3)c2cc1OC	85.2

biological target: RPS6KA4 KD2 (human) (UniProt O75676); experiment: as above; settings: compound 0.5 µM; ATP 10 µM

Compound	residual activity [%]
O=C(O)c1ccc2c3c1cccc3c(=O)n1c3ccccc3nc21	110
N#Cc1c(NC(=O)c2cccc3ccccc23)sc2c1CCCC2	111
FC(F)(F)c1ccc(/C=C/c2nc(COc3ccc(CCCCn4ccnn4)cc3)co2)cc1	105
COc1cc2ncnc(Nc3ccc(O)c(Br)c3)c2cc1OC	93.8

biological target: IKBKB (human) (UniProt O14920); experiment: as above; settings: compound 0.5 µM; ATP 10 µM

Compound	residual activity [%]
O=C(O)c1ccc2c3c1cccc3c(=O)n1c3ccccc3nc21	109
N#Cc1c(NC(=O)c2cccc3ccccc23)sc2c1CCCC2	97
FC(F)(F)c1ccc(/C=C/c2nc(COc3ccc(CCCCn4ccnn4)cc3)co2)cc1	98.6
COc1cc2ncnc(Nc3ccc(O)c(Br)c3)c2cc1OC	88.1

biological target: GRK7 (human) (UniProt Q8WTQ7); experiment: as above; settings: compound 0.5 µM; ATP 10 µM
Sequence (Q8WTQ7 whole entry, looked up): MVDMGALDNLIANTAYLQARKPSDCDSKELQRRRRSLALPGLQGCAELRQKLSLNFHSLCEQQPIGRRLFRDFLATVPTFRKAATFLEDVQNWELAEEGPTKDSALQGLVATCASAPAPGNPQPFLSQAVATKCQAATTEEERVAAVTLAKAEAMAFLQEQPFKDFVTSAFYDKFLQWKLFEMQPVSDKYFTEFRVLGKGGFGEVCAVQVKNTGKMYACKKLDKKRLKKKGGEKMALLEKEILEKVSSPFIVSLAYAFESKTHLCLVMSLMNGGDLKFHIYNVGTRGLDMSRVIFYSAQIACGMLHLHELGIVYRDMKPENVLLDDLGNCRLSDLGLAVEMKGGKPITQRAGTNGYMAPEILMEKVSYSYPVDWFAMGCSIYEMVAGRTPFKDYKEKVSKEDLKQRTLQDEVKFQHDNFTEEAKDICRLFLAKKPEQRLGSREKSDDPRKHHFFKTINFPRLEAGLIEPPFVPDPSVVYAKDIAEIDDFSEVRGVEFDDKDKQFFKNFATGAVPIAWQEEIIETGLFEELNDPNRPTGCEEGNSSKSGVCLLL

Compound	residual activity [%]
O=C(O)c1ccc2c3c1cccc3c(=O)n1c3ccccc3nc21	102
N#Cc1c(NC(=O)c2cccc3ccccc23)sc2c1CCCC2	116
FC(F)(F)c1ccc(/C=C/c2nc(COc3ccc(CCCCn4ccnn4)cc3)co2)cc1	97.8
COc1cc2ncnc(Nc3ccc(O)c(Br)c3)c2cc1OC	96.4

biological target: ALK (human) (UniProt Q9UM73); experiment: as above; settings: compound 0.5 µM; ATP 10 µM

Compound	residual activity [%]
O=C(O)c1ccc2c3c1cccc3c(=O)n1c3ccccc3nc21	92.7
N#Cc1c(NC(=O)c2cccc3ccccc23)sc2c1CCCC2	96.4
FC(F)(F)c1ccc(/C=C/c2nc(COc3ccc(CCCCn4ccnn4)cc3)co2)cc1	108
COc1cc2ncnc(Nc3ccc(O)c(Br)c3)c2cc1OC	12.5

biological target: RPS6KA5 KD2 (human) (UniProt O75582); experiment: as above; settings: compound 0.5 µM; ATP 10 µM

Compound	residual activity [%]
O=C(O)c1ccc2c3c1cccc3c(=O)n1c3ccccc3nc21	104
N#Cc1c(NC(=O)c2cccc3ccccc23)sc2c1CCCC2	99.6
FC(F)(F)c1ccc(/C=C/c2nc(COc3ccc(CCCCn4ccnn4)cc3)co2)cc1	111
COc1cc2ncnc(Nc3ccc(O)c(Br)c3)c2cc1OC	93.4

biological target: AURKC (human) (UniProt Q9UQB9); experiment: as above; settings: compound 0.5 µM; ATP 10 µM
Sequence (Q9UQB9 whole entry, looked up): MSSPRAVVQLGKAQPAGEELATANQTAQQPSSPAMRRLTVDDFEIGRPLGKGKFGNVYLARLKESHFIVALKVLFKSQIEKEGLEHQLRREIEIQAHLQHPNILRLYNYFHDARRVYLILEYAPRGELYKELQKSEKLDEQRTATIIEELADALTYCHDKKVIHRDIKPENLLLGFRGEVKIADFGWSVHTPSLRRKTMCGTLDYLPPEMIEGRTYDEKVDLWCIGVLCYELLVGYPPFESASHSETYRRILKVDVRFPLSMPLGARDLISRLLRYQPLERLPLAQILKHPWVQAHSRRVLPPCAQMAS

Compound	residual activity [%]
O=C(O)c1ccc2c3c1cccc3c(=O)n1c3ccccc3nc21	88
N#Cc1c(NC(=O)c2cccc3ccccc23)sc2c1CCCC2	95
FC(F)(F)c1ccc(/C=C/c2nc(COc3ccc(CCCCn4ccnn4)cc3)co2)cc1	97.1
COc1cc2ncnc(Nc3ccc(O)c(Br)c3)c2cc1OC	83.7

biological target: SRPK3 (human) (UniProt Q9UPE1); experiment: as above; settings: compound 0.5 µM; ATP 10 µM
Sequence (Q9UPE1 whole entry, looked up): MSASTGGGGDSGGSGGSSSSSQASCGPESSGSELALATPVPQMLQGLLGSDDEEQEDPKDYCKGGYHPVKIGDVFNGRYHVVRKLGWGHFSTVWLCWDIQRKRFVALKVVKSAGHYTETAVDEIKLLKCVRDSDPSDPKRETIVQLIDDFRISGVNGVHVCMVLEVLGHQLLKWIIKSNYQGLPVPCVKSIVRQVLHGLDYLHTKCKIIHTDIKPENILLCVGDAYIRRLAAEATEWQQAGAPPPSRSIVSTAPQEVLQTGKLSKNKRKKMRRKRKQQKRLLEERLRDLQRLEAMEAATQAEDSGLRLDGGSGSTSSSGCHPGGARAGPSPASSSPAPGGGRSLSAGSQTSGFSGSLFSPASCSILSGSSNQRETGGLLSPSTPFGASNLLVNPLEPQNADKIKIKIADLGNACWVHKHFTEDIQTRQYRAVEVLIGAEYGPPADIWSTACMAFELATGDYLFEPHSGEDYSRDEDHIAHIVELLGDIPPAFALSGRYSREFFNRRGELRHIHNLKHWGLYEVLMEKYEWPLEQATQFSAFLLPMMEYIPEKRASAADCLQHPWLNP

Compound	residual activity [%]
O=C(O)c1ccc2c3c1cccc3c(=O)n1c3ccccc3nc21	82.8
N#Cc1c(NC(=O)c2cccc3ccccc23)sc2c1CCCC2	95.7
FC(F)(F)c1ccc(/C=C/c2nc(COc3ccc(CCCCn4ccnn4)cc3)co2)cc1	104
COc1cc2ncnc(Nc3ccc(O)c(Br)c3)c2cc1OC	92.4

biological target: BRSK1 (human) (UniProt Q8TDC3); experiment: as above; settings: compound 0.5 µM; ATP 10 µM
Sequence (Q8TDC3 whole entry, looked up): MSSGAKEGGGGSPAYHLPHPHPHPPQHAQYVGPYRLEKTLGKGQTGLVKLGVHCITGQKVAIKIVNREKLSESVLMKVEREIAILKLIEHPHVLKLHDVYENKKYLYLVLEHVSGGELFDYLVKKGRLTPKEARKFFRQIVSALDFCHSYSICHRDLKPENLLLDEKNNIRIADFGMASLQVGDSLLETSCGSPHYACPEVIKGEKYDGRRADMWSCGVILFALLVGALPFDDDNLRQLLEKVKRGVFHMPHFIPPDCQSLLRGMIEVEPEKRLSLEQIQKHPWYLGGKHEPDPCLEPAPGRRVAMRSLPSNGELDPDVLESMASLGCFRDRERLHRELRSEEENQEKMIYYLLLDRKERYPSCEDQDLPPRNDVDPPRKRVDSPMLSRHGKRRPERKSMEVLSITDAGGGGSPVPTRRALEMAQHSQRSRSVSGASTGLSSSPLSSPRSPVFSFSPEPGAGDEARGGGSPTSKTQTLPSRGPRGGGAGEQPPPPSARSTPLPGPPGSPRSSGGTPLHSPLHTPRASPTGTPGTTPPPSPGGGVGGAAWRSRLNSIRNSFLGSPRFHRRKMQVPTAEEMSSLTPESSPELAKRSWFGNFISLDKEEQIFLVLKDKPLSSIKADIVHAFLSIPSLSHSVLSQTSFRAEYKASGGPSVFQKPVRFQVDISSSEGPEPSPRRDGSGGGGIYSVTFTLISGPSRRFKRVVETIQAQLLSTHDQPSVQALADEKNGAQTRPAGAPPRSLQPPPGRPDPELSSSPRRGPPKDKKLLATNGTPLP

Compound	residual activity [%]
O=C(O)c1ccc2c3c1cccc3c(=O)n1c3ccccc3nc21	89
N#Cc1c(NC(=O)c2cccc3ccccc23)sc2c1CCCC2	97
FC(F)(F)c1ccc(/C=C/c2nc(COc3ccc(CCCCn4ccnn4)cc3)co2)cc1	103
COc1cc2ncnc(Nc3ccc(O)c(Br)c3)c2cc1OC	81.6
